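GI50 is the concentration that inhibits growth by half. TGI is the concentration that stops growth completely.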
Assays:
Assay in all cases: NCI tumour cell line growth inhibition, 384-well format
[1] = tested on: 786-0 renal
[2] = tested on: A498 renal
[3] = tested on: A549 NSCLC
[4] = tested on: BT-549 breast
[5] = tested on: HOP-62 NSCLC
[6] = tested on: HOP-92 NSCLC
[7] = tested on: MDA-MB-231 breast
[8] = tested on: NCI-H322M lung
[9] = tested on: NCI-H460 NSCLC
[10] = tested on: OVCAR-3 ovarian
[11] = tested on: OVCAR-8 ovarian
[12] = tested on: SW-620 colon
[13] = tested on: UACC-257 melanoma

CCS(=O)(=O)N1CCC(C(C)n2c(C)c(C(=O)NCc3c(OC)cc(C)[nH]c3=O)c3ccccc32)CC1 (stereo unspecified) was tested, and the GI50 [1] was > 100 µM, the TGI [1] was > 100 µM and the GI50 [2] was > 100 µM. The TGI [2] was > 100 µM, the GI50 [3] was > 100 µM and the TGI [3] was > 100 µM. For the same molecule, the GI50 [4] was > 100 µM, the TGI [4] was > 100 µM and the GI50 [5] was > 87.9 µM. For the same molecule, the TGI [5] was > 100 µM, the GI50 [6] was > 100 µM and the TGI [6] was > 100 µM. For the same molecule, the GI50 [7] was > 100 µM, the TGI [7] was > 100 µM and the GI50 [8] was > 100 µM. For the same molecule, the TGI [8] was > 100 µM, the GI50 [9] was > 100 µM and the TGI [9] was > 100 µM. The GI50 [10] was > 100 µM, the TGI [10] was > 100 µM and the GI50 [11] was > 100 µM. The TGI [11] was > 100 µM, the GI50 [12] was > 100 µM and the TGI [12] was > 100 µM. The GI50 [13] was > 100 µM and the TGI [13] was > 100 µM.

Source: PubChem BioAssay (NCI)
